“And” between values parts separate entries of the source, which are not always exact repeats. Identical values can stand only once. Like-named read-outs stand apart in the source and are kept apart here.

As usually defined, the IC50 is the concentration at which inhibition is half-maximal.

The target of the experiment is T1, GBA2 (Homo sapiens, UniProt Q9HCG7).
T1 sequence (Q9HCG7 1-927): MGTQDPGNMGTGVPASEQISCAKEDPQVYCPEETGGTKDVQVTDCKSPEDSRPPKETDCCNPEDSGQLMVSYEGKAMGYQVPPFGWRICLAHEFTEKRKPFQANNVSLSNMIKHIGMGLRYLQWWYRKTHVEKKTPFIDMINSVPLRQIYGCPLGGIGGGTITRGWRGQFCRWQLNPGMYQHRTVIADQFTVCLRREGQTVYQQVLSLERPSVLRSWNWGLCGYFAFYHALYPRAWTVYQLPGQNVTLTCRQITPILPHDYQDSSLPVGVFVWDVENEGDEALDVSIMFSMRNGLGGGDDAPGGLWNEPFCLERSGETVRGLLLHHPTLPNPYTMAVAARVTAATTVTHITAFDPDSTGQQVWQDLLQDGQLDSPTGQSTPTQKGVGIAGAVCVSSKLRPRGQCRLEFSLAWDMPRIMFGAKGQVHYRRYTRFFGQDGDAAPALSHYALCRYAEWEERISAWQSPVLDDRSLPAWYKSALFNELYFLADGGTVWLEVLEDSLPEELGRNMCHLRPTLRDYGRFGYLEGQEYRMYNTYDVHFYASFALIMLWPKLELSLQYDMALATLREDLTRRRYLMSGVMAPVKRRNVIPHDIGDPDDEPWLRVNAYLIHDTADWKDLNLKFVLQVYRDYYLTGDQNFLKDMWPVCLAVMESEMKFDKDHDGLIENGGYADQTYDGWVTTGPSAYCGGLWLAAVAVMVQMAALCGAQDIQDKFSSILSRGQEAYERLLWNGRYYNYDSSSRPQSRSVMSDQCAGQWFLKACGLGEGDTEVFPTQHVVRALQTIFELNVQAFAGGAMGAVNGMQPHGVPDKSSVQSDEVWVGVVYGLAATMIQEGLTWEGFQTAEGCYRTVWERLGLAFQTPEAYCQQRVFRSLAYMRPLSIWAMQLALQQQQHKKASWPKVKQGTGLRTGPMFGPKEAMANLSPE
Kind of experiment: 4MU fluorogenic substrate assay for apparent IC50, GBA2. As to conditions: 4MU-β-D-Glc. Also noted: expressed in transfected cells; host or cells: HEK293T GBA1/GBA2 KO (CRISPR/Cas9), GBA2 overexpressed. The class given is biochemical. The source says: To identify an ABP that selectively labels human GBA2 over GBA1 and GBA3, a library of cyclophellitol-based ABPs with varying configurations (ESI Fig. S1 ^†) was screened for their selectivity towards human retaining β-glucosidases. For this purpose, we initially assessed the inhibition properties of the compounds using recombinant human GBA1 (rhGBA1, imiglucerase), lysates of cells overexpressing GBA2 or GBA3 (both in combination with knockout of the other retaining β-glucosidases). In a preliminary screen, enzymes were pre-incubated for 30 min with the tested compounds, followed by the addition of the fluorogenic substrate, 4MU-β-D-Glc, and subsequent quantification of released fluorescent 4MU after 30 minutes. This screening brought our attention to a new set of β-D-Araf cyclitol aziridines as potential GBA2 inhibitors. […] On the other hand, the biotin-tagged β-D-Araf compound 6 is a poor inhibitor of all three glucosidases (apparent IC50 > 8 μM). Arabinofuranosyl cyclitol 12–20 with various configurations (α-L-Araf and β-L-Araf) were also evaluated (ESI Fig. S1 ^†).
Recombinant human GBA1 (rhGBA1, Imiglucerase) was kindly provided by Sanofi Genzyme (Cambridge, MA, USA). 4-Methylumbelliferyl-β-D-glucopyranoside substrates were purchase from Glycosynth (Warrington Cheshire, UK). Protein concentration was measured using the Pierce BCA assay kit (Thermo Fisher Scientific, Waltham, MA, USA). Harvested cells (cell pellets), cell lysates and tissue homogenates not used directly were stored at -80 °C.
HEK293T (CRL‐3216™) cells were purchased from ATCC (Manassas, VA, USA). HEK293T cells were cultured in DMEM medium (Sigma‐Aldrich), supplied with 10% (v/v) FCS, 0.1% (w/v) penicillin/streptomycin and 1% (v/v) Glutamax, under 37 °C and 5% or 7% CO2. […]
2.3 Generation of cells genetically modified for β-glucosidase expression For overexpression of the different β-glucosidases, "wildtype" HEK293T cells, HEK293T cells with GBA2 knockout (KO) or HEK293T cells with both GBA1 and GBA2 KO were used, following by the overexpression (OE) of targeted β-glucosidases using the constructs as described in references.1,2 Either GBA2 or GBA3 were overexpressed in GBA1/GBA2 KO HEK293T (generated by the CRISPR/Cas9 method2) to generate GBA1/2 KOs with GBA2 (or GBA3) for overexpression in HEK293T cells as indicated, or using "wildtype" HEK293T cells containing endogenous GBA1 and GBA2 to overexpress both GBA2 and GBA3, these were generated as described in our previous report.1,2 […]
Cells were cultured with the method described above to 80-90% confluency, and were isolated, washed with Dulbecco′s phosphate buffered saline (PBS) and subsequently collected using the following method.3 HEK293T and RPE-1 cells were easily detached from the culture plate by trypsin treatment after which some DMEM medium was added. The cells were collected by pipetting and DMEM medium was removed by centrifuging. The cells were washed with cold PBS three times, after which they were centrifuged to remove PBS and then stored at –80 °C for further use or lysed in potassium phosphate buffer (K2HPO4-KH2PO4, 25 mM, pH 6.5, supplemented with 0.1% (v/v) Triton X-100 and protease inhibitor cocktail (EDTA-free, Roche, Basel, Switzerland)) by sonication with a Polytron PT 1300D sonicator (Kinematica, Luzern, Switzerland). After sonication, lysed mixtures were centrifuged at 10,000 x g for 3 min at 4°C, and the supernatants where desired β-glucosidases exist were used for the experiment.
2.5 4MU fluorogenic substrate assay for apparent IC50 determination
4MU fluorogenic substrate assays (using recombination human rhGBA1 or lysates of HEK293T cells) were conducted in 96-well plates at 37 °C. Samples were diluted with McIlvaine buffer (150 mM citric acid-Na2HPO4) to a final volume of 25 μL, at the appropriate pH for each enzyme. Assays were performed by incubating the samples with 100 μL 4-methylumbelliferyl-β-D-glucopyranoside substrate diluted in McIlvaine buffer for a period of 30 min. […]

The mark [1] stands for this setting: Apparent IC50 GBA2, GBA1/GBA2 KO GBA2 OE HEK293T cell lysate, 30 min pre-incubation, pH 5.8, n = 3 for β-D-Araf, n = 1 for α-L-Araf and β-L-Araf.
[2] abbreviates: GBA1/GBA2 KO GBA2 OE HEK293T cell lysate, 30 min pre-incubation, pH 5.8, n = 3 for β-D-Araf, n = 1 for α-L-Araf and β-L-Araf, read-out: Apparent IC50 GBA2.

Regarding `CC1=CC(C)=[N+]2C1=C(CCCCc1cn(CCCCCCCCN3[C@@H]4[C@H](CO)[C@@H](O)[C@H](O)[C@@H]43)nn1)c1c(C)cc(C)n1[B-]2(F)F` (some centres unmarked) [ABP 3], under setting [1], the IC50 was 0.12 to 0.16 µM and 0.124 µM.

Take `COc1ccc(C2=[N+]3C(=C(CCCCc4cn(CCCCCCCCN5[C@@H]6[C@H](CO)[C@@H](O)[C@H](O)[C@@H]65)nn4)c4ccc(-c5ccc(OC)cc5)n4[B-]3(F)F)C=C2)cc1` (some centres unmarked) [ABP 4]: under setting [1], the IC50 was 0.12 to 0.16 µM and 0.162 µM.

For the compound `CN1/C(=C/C=C/C=C/C2=[N+](CCCCCC(=O)NCc3cn(CCCCCCCCN4[C@@H]5[C@H](CO)[C@@H](O)[C@H](O)[C@@H]54)nn3)c3ccccc3C2(C)C)C(C)(C)c2ccccc21` (some centres unmarked) [ABP 5], the IC50 under setting [1] was 0.25 to 0.3 µM and 0.264 µM.

Turning to `O=C(CCCC[C@@H]1SC[C@@H]2NC(=O)N[C@@H]21)NCc1cn(CCCCCCCCN2[C@@H]3[C@H](CO)[C@@H](O)[C@H](O)[C@@H]32)nn1` (some centres unmarked) [ABP 6], the concentration for half-maximal inhibition (IC50) (Apparent IC50 GBA2, 30 min pre-incubation) is greater than 8 µM and the IC50 under setting [1] was 8.48 ± 0.763 µM.

For the compound `OC[C@@H]1[C@@H](O)[C@H](O)[C@@H]2N[C@H]12` [Compound 1, β-D-Arabinofuranosyl cyclitol aziridine], the IC50 is, setting by setting: (30 min pre-incubation, read-out: Apparent IC50 GBA2) greater than 50 µM; under setting [2], greater than 50 µM.

As for `[N-]=[N+]=NCCCCCCCCN1[C@@H]2[C@H](CO)[C@@H](O)[C@H](O)[C@@H]21` (stereo partly drawn) [Compound 2, β-D-arabinofuranosyl cyclitol aziridine-azidooctyl], the half-maximal inhibitory concentration (IC50) under setting [2] came out at 0.63 µM.

The record behind these values is publication PMC11375437, “Selective labelling of GBA2 in cells with fluorescent β-D-arabinofuranosyl cyclitol aziridines” (Chemical Science, 2024).
